Reference: ChEMBL document CHEMBL1201862, “PubChem BioAssay data set” (2004)
Calls of active or inactive are those of the source.

Experiments:
[1] = Counterscreen for IDE inhibitors: Luminescence-based cell-based high throughput dose response assay to identify compounds that are cytotoxic to HEK cells. [Related pubchem assays: 434962 (Primary screen (IDE inhibitors in singlicate)), 449730 (Counterscreen (Cytotoxicity in triplicate)), 435028 (Confirmation (IDE inhibitors in triplicate)) …; type: functional; settings: HEK293
Insulin-degrading enzyme = target: T1, Insulin-degrading enzyme (Homo sapiens, UniProt P14735); assay: Dose Response: Fluorescence polarization-based cell-based high throughput dose response assay for inhibitors of insulin-degrading enzyme (IDE). [Related pubchem assays: 434962 (Primary screen (IDE inhibitors in singlicate)), 449730 (Counterscreen (Cytotoxicity in triplicate)), 435028 (Confirmation (IDE inhibitors in triplicate)), 434984 (Summary …; type: functional
T1 sequence (P14735 whole entry): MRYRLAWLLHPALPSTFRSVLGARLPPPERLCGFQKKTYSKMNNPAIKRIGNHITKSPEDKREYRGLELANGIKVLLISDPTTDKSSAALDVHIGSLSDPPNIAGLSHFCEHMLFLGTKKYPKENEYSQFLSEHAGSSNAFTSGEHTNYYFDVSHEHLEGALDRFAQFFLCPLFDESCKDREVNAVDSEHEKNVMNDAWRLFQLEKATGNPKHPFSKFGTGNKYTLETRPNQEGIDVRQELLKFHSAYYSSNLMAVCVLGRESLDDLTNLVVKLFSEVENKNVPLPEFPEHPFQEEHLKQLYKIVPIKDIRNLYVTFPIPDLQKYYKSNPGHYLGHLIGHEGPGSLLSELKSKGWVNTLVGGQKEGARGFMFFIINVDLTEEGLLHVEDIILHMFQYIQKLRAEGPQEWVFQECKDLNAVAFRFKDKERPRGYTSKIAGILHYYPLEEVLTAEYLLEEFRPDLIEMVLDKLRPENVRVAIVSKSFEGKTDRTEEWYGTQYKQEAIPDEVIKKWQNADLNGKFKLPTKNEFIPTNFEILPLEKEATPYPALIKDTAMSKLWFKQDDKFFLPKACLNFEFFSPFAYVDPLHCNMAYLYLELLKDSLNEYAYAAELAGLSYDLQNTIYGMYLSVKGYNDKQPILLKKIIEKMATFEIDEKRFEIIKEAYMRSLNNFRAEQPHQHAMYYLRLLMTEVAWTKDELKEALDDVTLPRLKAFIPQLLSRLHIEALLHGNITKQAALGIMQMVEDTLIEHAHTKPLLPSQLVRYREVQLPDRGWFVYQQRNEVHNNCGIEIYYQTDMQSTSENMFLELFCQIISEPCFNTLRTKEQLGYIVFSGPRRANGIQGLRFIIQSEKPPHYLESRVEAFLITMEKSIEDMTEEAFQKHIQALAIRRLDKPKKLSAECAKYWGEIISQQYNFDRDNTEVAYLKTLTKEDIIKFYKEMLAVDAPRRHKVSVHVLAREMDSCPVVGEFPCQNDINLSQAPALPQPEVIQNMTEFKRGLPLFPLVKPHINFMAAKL

[2] = target: T2, Short transient receptor potential channel 4 (Mus musculus, UniProt Q9QUQ5); assay: block of DAMGO-driven TRPC4 calcium entry – cell-based, HEK293 TRPC4/mu-opioid, Fluo-4 calcium, dose response (AID 434942); type: functional;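 also: potency of inhibitors blocking the TRPC4 calcium response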
T2 sequence (Q9QUQ5 whole entry): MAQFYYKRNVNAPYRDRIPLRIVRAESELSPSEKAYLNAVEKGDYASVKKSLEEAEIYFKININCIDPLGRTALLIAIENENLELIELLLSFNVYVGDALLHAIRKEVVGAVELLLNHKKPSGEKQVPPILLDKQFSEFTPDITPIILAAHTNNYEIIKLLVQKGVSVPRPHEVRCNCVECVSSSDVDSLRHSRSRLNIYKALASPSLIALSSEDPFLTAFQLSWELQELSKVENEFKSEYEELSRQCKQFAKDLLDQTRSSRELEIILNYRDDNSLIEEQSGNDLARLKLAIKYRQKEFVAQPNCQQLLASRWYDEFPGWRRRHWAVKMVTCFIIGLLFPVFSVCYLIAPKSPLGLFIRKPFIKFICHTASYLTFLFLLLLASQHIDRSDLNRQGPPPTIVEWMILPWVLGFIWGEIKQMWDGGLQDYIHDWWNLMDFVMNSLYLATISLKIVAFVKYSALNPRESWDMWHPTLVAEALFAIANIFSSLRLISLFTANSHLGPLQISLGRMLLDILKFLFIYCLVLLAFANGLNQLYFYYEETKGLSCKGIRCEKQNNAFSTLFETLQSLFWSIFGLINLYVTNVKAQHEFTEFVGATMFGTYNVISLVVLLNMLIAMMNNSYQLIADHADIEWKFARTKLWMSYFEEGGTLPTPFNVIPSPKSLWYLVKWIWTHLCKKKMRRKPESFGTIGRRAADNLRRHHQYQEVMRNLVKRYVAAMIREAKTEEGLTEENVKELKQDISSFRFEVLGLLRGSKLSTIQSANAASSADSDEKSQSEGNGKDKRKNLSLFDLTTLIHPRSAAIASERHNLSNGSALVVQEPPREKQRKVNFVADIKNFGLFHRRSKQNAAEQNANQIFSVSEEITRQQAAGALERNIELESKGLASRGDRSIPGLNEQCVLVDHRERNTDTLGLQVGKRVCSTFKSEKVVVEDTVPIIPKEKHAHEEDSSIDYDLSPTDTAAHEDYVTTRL

[3] = A Cell Based Secondary Assay To Explore Cytotoxicity of Compounds that Sensitize Mycobacterium Tuberculosis to Beta-Lactam Antibiotics.; type: functional
[4] = antiviral protection against BTV-induced cell death – arbovirus, BSR cells, confirmation (AID 1250); type: functional;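 also: protection from viral cytopathic effect measured as cell viability by ATP luminescence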
[5] = Luminescence Cell-Based Dose Retest to Confirm Inhibitors of Cancer Stem Cells. [Related pubchem assays (depositor defined):AID2717, AID2721]; type: functional; settings: Homo sapiens
[6] = viability of PTEN-deleted HCT116 cells – cell-based, HCT116 PTEN knockout, dose response (AID 1047); type: functional;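 also: HCT116 colon tumor cells with PTEN knocked out; cells exposed to compound for 60 hours before readout; potency for loss of cell viability measured by luminescence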
[7] = viability of uninfected HEp-2 cells – cell-based, HTS, cytotoxicity control for RSV inhibitor project, dose response (AID 2410); type: functional; settings: human respiratory syncytial virus
[8] = viability of HCT116 lacking mutant beta-catenin – cell-based, human colon tumor, dose response (AID 1045); type: functional;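 also: HCT116 colon tumor cells with beta catenin knocked out; cells exposed to compound for 60 hours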
Bcl-2-like protein 10 = target: T3, Bcl-2-like protein 10 (Homo sapiens, UniProt Q9HD36); assay: Concentration-response of Bcl-B inhibitors by biochemical FP with TR3 (AID 1243); type: functional
T3 sequence (Q9HD36 whole entry): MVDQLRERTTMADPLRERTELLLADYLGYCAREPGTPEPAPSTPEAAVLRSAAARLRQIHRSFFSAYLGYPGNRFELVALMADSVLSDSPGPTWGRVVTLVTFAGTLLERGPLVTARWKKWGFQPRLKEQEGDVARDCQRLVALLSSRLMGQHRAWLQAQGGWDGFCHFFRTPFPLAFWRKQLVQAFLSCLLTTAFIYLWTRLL

[9] = target: Lysosomal acid glucosylceramidase (Homo sapiens, UniProt P04062); assay: Dose response cell-based high throughput screening assay to identify enhancers of beta-glucosidase activity. [Related pubchem assays: 784 ]; type: functional
[10] = luciferase reporter signal suppression in cells – H4 neuroglioma cells, luminescence, dose response (AID 1990); type: functional, cell-based
[11] = alpha-synuclein stem-loop luciferase translation blockers – H4 neuroglioma cells, luminescence, confirmation (AID 1988); type: functional, cell-based
[12] = Luminescence Cell-Based Dose Response HTS to Identify Inhibitors of 5'UTR Stem-Loop Driven Prion Protein mRNA Translation in H4 Neuroglioblastoma Cells. [Related pubchem assays: 1827 (Project Summary), 1813 (Primary HTS)]; type: functional
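For AC50 in this document: cells exposed to compound for roughly 70 hours or longer before luminescence read.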

Lysosomal acid glucosylceramidase, sequence (P04062 whole entry): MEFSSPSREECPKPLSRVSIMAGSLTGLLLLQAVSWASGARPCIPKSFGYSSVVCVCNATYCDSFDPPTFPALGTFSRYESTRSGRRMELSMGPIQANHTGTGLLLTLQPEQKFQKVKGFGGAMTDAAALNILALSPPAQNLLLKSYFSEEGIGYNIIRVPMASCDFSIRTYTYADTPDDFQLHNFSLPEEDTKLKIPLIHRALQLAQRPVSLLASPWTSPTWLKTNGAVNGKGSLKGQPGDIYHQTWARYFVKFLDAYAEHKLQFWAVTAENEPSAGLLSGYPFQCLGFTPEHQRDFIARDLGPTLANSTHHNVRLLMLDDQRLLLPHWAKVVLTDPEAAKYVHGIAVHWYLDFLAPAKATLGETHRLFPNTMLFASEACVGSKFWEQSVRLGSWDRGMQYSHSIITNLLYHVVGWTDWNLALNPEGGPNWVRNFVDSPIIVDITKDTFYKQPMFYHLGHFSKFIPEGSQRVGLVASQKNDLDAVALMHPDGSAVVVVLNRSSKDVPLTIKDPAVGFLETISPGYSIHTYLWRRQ

SMILES: Cc1cccc(-c2nnc(SCc3nc4ccccc4[nH]3)n2Cc2ccco2)c1
- IC50 [1]: 22.5 µM (not active)
- IC50 (Insulin-degrading enzyme): 5.67 µM (active)
- EC50 [2]: 1.19 µM (active)

SMILES: CC(C)Cn1c2c(c(O)c(C(=O)Nc3nccs3)c1=O)CCCC2
- CC50 [3]: > 40 µM (active)
- IC50 [4]: 94.4 µM (active)

SMILES: COc1ccc2c(c1)-c1nc(NC(=O)c3cccs3)sc1CC2
- AC50 [5]: 6.23 µM (active)
- EC50 [6]: 22 µM (active)
- CC50 [7]: 7.91 µM (active)
- EC50 [8]: 21.4 µM (active)
- IC50 (cells): 26.8 µM (active)

SMILES: O=C(O)C1Nc2ccc3ccccc3c2C2C=CCC12 (configuration not stated)
- EC50 (Bcl-2-like protein 10): 7.15 µM (active)

SMILES: Cc1cc2ccccc2c(=O)n1CC(=O)NCC(=O)N1CCN(c2ccccc2)CC1
- EC50 [9]: > 10 µM (not active)

SMILES: COc1ccc(/N=C2/C(=N\c3ccc(OC)cc3)N(c3ccc(OC)cc3)C(=S)N2c2ccc(N(C)C)cc2)cc1
- EC50 [10]: 0.146 µM (active)
- CC50 [7]: > 50 µM (active)
- EC50 [11]: 0.123 µM (active)
- IC50 (cells): 5.89 µM (active)
- EC50 [12]: 0.126 µM (active)
